Experimental data taken from BigSolDB 2.1.

CCc1occc(=O)c1O
solubility (mole fraction)
Conditions | 293.15 K | 298.15 K | 303.15 K | 308.15 K | 313.15 K | 318.15 K | 323.15 K | 328.15 K | 333.15 K
in ethanol | 0.0599 | 0.0798 | 0.0974 | 0.133 | 0.174 | 0.227 | 0.291 | 0.367 | 0.459
in water | 0.0021 | 0.0023 | 0.0027 | 0.0033 | 0.004 | 0.0051 | 0.0067 | 0.0089 | 0.0126
